These results are taken from ChEMBL document CHEMBL4828715, “Discovery, Structure-Activity Relationships, and In Vivo Evaluation of Novel Aryl Amides as Brain Penetrant Adaptor Protein 2-Associated Kinase 1 (AAK1) Inhibitors for the Treatment of Neuropathic Pain” (J Med Chem, 2021).

Series [1] has as its target AP2-associated protein kinase 1 (Homo sapiens, UniProt Q2M2I8). Description: Inhibition of recombinant GST-Xa-tagged human AAK1 (30 to 330 residues) using 5-FAM-labelled Alla-KEEQSQITSQVTGQIGWR-NH2 peptide as substrate incubated for 3 hrs in presence of ATP by electrophoretic analysis.
Series [2] can be described thus: Metabolic stability in mouse liver microsomes assessed as parent compound remaining at 0.5 uM incubated for 10 mins in presence of NADPH by LC-MS/MS analysis. The class given is ADME, Microsome. As to conditions: read-out: Stability. In general terms: Liver microsomes are vesicles of endoplasmic reticulum, rich in cytochrome P450 enzymes.
Series [3] is described as follows: Metabolic stability in rat liver microsomes assessed as parent compound remaining at 0.5 uM incubated for 10 mins in presence of NADPH by LC-MS/MS analysis. The class given is ADME, Microsome. As to conditions: read-out: Stability.
A short description of series [4]: Metabolic stability in human liver microsomes assessed as parent compound remaining at 0.5 uM incubated for 10 mins in presence of NADPH by LC-MS/MS analysis. The format is ADME, Microsome. To be noted: read-out: Stability.

Sequence of AP2-associated protein kinase 1 (Q2M2I8 whole entry, the tested form may be a part): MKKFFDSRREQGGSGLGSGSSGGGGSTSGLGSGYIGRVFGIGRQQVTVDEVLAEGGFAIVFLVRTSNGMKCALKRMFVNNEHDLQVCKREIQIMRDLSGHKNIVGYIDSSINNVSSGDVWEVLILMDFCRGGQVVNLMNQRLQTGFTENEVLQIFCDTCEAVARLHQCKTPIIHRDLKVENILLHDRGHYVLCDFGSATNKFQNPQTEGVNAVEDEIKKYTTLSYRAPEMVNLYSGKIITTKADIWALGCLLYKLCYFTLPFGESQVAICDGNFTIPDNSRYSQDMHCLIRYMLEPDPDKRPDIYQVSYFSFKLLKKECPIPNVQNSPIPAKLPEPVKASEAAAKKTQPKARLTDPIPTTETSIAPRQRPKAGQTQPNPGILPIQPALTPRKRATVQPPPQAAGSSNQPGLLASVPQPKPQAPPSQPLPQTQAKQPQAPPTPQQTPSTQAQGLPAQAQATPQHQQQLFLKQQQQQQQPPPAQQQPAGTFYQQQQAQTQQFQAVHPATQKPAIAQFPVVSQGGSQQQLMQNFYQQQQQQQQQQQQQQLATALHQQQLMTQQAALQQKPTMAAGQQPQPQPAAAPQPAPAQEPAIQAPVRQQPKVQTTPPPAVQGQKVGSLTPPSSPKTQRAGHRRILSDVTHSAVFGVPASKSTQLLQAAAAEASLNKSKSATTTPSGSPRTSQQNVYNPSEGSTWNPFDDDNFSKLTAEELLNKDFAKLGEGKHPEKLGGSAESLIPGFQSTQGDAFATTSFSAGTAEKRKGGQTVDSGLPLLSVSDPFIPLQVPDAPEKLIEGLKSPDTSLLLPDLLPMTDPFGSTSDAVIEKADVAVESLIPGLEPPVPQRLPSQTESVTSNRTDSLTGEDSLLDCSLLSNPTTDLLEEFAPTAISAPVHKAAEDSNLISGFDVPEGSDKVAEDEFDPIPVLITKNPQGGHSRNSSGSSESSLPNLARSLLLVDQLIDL

A word on the IC50: it is the concentration that gives 50% inhibition. Consider `COc1cc(NC(=O)[C@H](N)CC2CCC2)ccc1-c1cnco1`, for which, in series [1], the IC50 turned out to be 33 nM. Also, the remaining at 10 min, 0.5 µM in series [2] amounted to 53%; in series [3], 58%; in series [4], 70%.
Turning to `COc1cc(NC(=O)[C@H](N)C(C)C)ccc1-c1cnco1`, the remaining at 10 min, 0.5 µM worked out at 40% in series [2], 42% in series [3] and 84% in series [4].
For the compound `CC[C@@H](N)C(=O)Nc1ccc(-c2cnco2)c(OC)c1`, in series [1], the IC50 came out at 120 nM. For the same compound, the remaining at 10 min, 0.5 µM in series [2] came out at 46%; in series [3], 70%; in series [4], 81%.
In the case of `CC[C@@H](C)[C@@H](N)C(=O)Nc1ccc(-c2cnco2)c(OC)c1`, in series [1], the IC50 is 31 nM. Further, the remaining at 10 min, 0.5 µM was 81% in series [2], 62% in series [3] and 86% in series [4].
The like results for `COc1cc(NC(=O)Cc2ccccc2)ccc1-c1cnco1` were, in that order, 430 nM, 70%, 70% and 78%.
Regarding `COc1cc(NC(=O)[C@H](N)CC(C)(C)C)ccc1-c1cnco1`, in series [1], the IC50 is 85 nM. The figures for the remaining at 10 min, 0.5 µM in series [2] and in series [3] were 65% and 76%, respectively.
Turning to `CCCC[C@@H](N)C(=O)Nc1ccc(-c2cnco2)c(OC)c1`, the IC50 in series [1] worked out at 65 nM. Besides, the remaining at 10 min, 0.5 µM in series [2] was 65%; in series [3], 76%; in series [4], 87%.
As for `COc1cc(N(C)C(=O)[C@H](N)CC(C)C)ccc1-c1cnco1`, in series [1], the IC50 was found to be 12800 nM.
For the compound `COc1cc(NC(=O)CCC(C)C)ccc1-c1cnco1`, the IC50 in series [1] was determined as 80 nM. For the same compound, the remaining at 10 min, 0.5 µM was determined as 33% in series [2], 46% in series [3] and 61% in series [4].
For `CC(C)C1CCCNC1C(=O)Nc1ccc(-c2ccncc2)cc1` (racemic), the IC50 in series [1] is 17 nM. Besides, the remaining at 10 min, 0.5 µM came out at 76% in series [2], 60% in series [3] and 77% in series [4].
The like results for `CC(C)C[C@@H](N)C(=O)Nc1ccc(-c2ccncc2)cc1` were, in that order, 15 nM, 66%, 75% and 80%.
In the same order, the values of `CC(C)C[C@@H](N)C(=O)Nc1ccc(-c2cnco2)c(C#N)c1` are 72 nM, 57%, 50% and 64%.
The like results for `COc1cc(NC(=O)[C@H](N)CC(C)C)ccc1-n1cncn1` were, in that order, 920 nM, 87%, 79% and 79%.
Take `COc1cc(NC(=O)[C@H](N)C2CCCC2)ccc1-c1cnco1`: the IC50 in series [1] came out at 13 nM. The figures for the remaining at 10 min, 0.5 µM in series [2], in series [3] and in series [4] were 63%, 73% and 84%, respectively.
In the same order, the values of `COc1cc(NC(=O)[C@H](N)CC(C)C)ccc1-c1cncs1` are 190 nM, 55%, 76% and 75%.
The like results for `COc1cc(NC(=O)[C@H](N)Cc2ccccc2)ccc1-c1cnco1` were, in that order, 630 nM, 56%, 49% and 68%.
The like results for `CC(C)C[C@@H](N)C(=O)Nc1ccc(-c2cnco2)cc1` were, in that order, 170 nM, 45%, 71% and 87%.
As for `COc1cc(NC(=O)[C@H](N)CC(C)C)ccc1-c1ccnnc1`, the IC50 in series [1] worked out at 110 nM. Moreover, the remaining at 10 min, 0.5 µM turned out to be 70% in series [2], 74% in series [3] and 99% in series [4].
With `COc1cc(NC(=O)[C@H](N)CC(C)C)ccc1-c1cncnc1`, in series [1], the IC50 came to 5700 nM.
In the case of `COc1cc(NC(=O)[C@@H](N)CC(C)C)ccc1-c1cnco1`, the IC50 in series [1] is 19 nM. Moreover, the remaining at 10 min, 0.5 µM in series [2] stood at 53%; in series [3], 40%; in series [4] it was 71%.
In the same order, the values of `COc1cc(NC(=O)[C@H](N)CC(C)C)ccc1-c1ccnc(Cl)c1` are 240 nM, 74%, 89% and 73%.
The like results for `COc1cc(NC(=O)[C@H](N)CC(C)C)ccc1-c1ccnc(N)c1` were, in that order, 150 nM, 73%, 89% and 96%.
In the case of `COc1cc(NC(=O)[C@H](N)CC(C)C)ccc1-c1cn[nH]n1`, the half-inhibitory concentration (IC50) in series [1] was determined as 49 nM. The remaining at 10 min, 0.5 µM in series [2] came out at 44%; in series [3] it was 87%; in series [4] it was 84%.
In the same order, the values of `COc1cc(NC(=O)[C@H](N)CCC(C)C)ccc1-c1cnco1` are 71 nM, 80%, 62% and 75%.
Consider `COc1cc(NC(=O)[C@H](N)C2CCCCC2)ccc1-c1cnco1`, for which the IC50 in series [1] came to 18 nM. Also, the remaining at 10 min, 0.5 µM was determined as 67% in series [2], 66% in series [3] and 69% in series [4].
For `COc1cc(NC(=O)[C@H](N)CC2CCCCC2)ccc1-c1cnco1`, in series [1], the IC50 was 480 nM. The figures for the remaining at 10 min, 0.5 µM in series [2], in series [3] and in series [4] were 78%, 63% and 68%, respectively.
In the case of `COc1cc(NC(=O)[C@H](N)CC(C)C)ccc1-n1ccnc1`, the values for the remaining at 10 min, 0.5 µM in series [2], in series [3] and in series [4] were 87%, 86% and 92%, respectively.
On to `CCc1cc(NC(=O)[C@H](N)CC(C)C)ccc1-c1cnco1`, for which, in series [1], the IC50 came out at 100 nM. Moreover, the remaining at 10 min, 0.5 µM was determined as 45% in series [2], 70% in series [3] and 88% in series [4].
For `COc1cc(NC(=O)[C@H](N)CC(C)C)ccc1-c1cnn(C)c1`, the IC50 in series [1] amounted to 3900 nM.
`COc1cc(NC(=O)C(CN)CC(C)C)ccc1-c1cnco1` (stereo not given): the remaining at 10 min, 0.5 µM in series [2] was 78%; in series [3], 63%; in series [4] it was 97%.
As to `COc1cc(NC(=O)[C@H](N)CC(C)C)ccc1-c1ccncc1`, in series [1], the IC50 was determined as 85 nM. Also, the remaining at 10 min, 0.5 µM in series [2] is 65%; in series [3], 77%; in series [4], 91%.
The like results for `COc1cc(NC(=O)[C@H]2CCCCN2)ccc1-c1cnco1` were, in that order, 550 nM, 1%, 37% and 94%.
The like results for `COc1cc(NC(=O)[C@H](N)c2ccccc2)ccc1-c1cnco1` were, in that order, 42 nM, 75%, 60% and 63%.
In the case of `COc1cc(NC(=O)[C@H](N)[C@H](C)O)ccc1-c1cnco1`, the IC50 in series [1] was determined as 410 nM. Further, the remaining at 10 min, 0.5 µM in series [2] was found to be 91%; in series [3], 77%; in series [4] it was 85%.
The like results for `CNc1cc(-c2ccc(NC(=O)[C@H](N)CC(C)C)cc2OC)ccn1` were, in that order, 450 nM, 24%, 22% and 69%.
The like results for `CCC[C@H](N)C(=O)Nc1ccc(-c2cnco2)c(OC)c1` were, in that order, 350 nM, 46%, 31% and 70%.
For `CCCC[C@H](N)C(=O)Nc1ccc(-c2cnco2)c(OC)c1`, the IC50 in series [1] worked out at 260 nM. Moreover, the remaining at 10 min, 0.5 µM came out at 43% in series [2], 54% in series [3] and 65% in series [4].
The like results for `CCOc1cc(NC(=O)[C@H](N)CC(C)C)ccc1-c1cnco1` were, in that order, 13 nM, 54%, 60% and 64%.
The like results for `CC(C)C[C@@H](N)C(=O)Nc1ccc(-c2cnco2)c(F)c1` were, in that order, 43 nM, 30%, 68% and 78%.
The like results for `COc1cc(NC(=O)[C@H]2NCCC[C@H]2C(C)C)ccc1-c1cnco1` were, in that order, 360 nM, 1%, 24% and 19%.
For the compound `COc1cc(NC(=O)[C@H](N)CC(C)C)ccc1-c1cccnc1`, in series [1], the IC50 is 10200 nM.
Consider `CN[C@H](CC(C)C)C(=O)Nc1ccc(-c2cnco2)c(OC)c1`, for which the IC50 in series [1] is 46 nM. The remaining at 10 min, 0.5 µM in series [2] is 14%; in series [3], 39%; in series [4], 53%.
Consider `CC(C)C[C@@H](N)C(=O)Nc1ccc(-c2cnco2)c(OC(F)(F)F)c1`, for which the remaining at 10 min, 0.5 µM in series [2] worked out at 53%; in series [3], 79%; in series [4], 69%.
